Results on one molecule are retold here after patent US10471059B2, “Compositions and methods of using tyrosine kinase inhibitors” (YALE UNIVERSITY, priority 2015, dated 2019).

Entries after “also recorded” stand apart in the source; their conditions may differ.

In one data set the test system is Ptpn11^Y279C/+ mice. As to the kind of experiment: Quantitative RT-PCR of heart RNA, NSML mice, postnatal dasatinib. In kind it is in vivo. The method, then:
FIG. 25, comprising FIGS. 25a-25f, is a panel of graphs showing the improvement in molecular markers of cardiomyopathy and fibrosis in NSML (Y279C/+) mice following dasatinib treatment. Total heart RNA was isolated from postnatal vehicle- or dasatinib-treated (0.1 mg/kg/day) WT and Ptpn11^Y279C/+ mice (P42). Fibrosis marker genes, Col1a2 (FIG. 25a) and Col3a1 (FIG. 25b), markers of cardiomyopathy ANP (FIG. 25c) and cardiac fetal genes, Myh6 (αMHC) (FIG. 25d), Myh7 (bMHC) (FIG. 25e), and Myh6/Myh7 ratio (FIG. 25f) were measured by quantitative RT-PCR (n=6 for each group). All data represent mean±SEM. *, p<0.05; **, p<0.01; ***, p<0.001. (Two-way ANOVA test).
RNA Extraction and Quantitative Real-Time PCR Analysis—RNA was isolated from mice heart using an RNeasy kit (Qiagen, CA) according to the manufacturer's instructions. A total of 1 μg RNA was reverse transcribed to generate cDNA using a reverse transcriptase PCR kit (Applied Biosystems, CA). Real-time quantitative PCR was carried out in triplicate using the Applied Biosystems 7500 Fast real-time PCR system and SYBR green gene expression master mix with following primer pairs.
The data presented in FIGS. 25a-25f represents dasatinib treatment starting at post-natal day 10 (P10) for 6 weeks (P42) in wild type (WT) and NSML (Ptpn11^Y279C/+) mice. Ptpn11^Y279C/+ were obtained from Dr. Kontaridis (Beth Israel Deaconess Hospital, Boston, Mass.) and bred as described (Marin, et al, J Clin. Invest., 121:1026-1043(2011)). Mice were treated with either vehicle or dasatinib at a dose of 0.1 mg/kg/day for 6 weeks […]. At the completion of the study, wild type and Ptpn11^Y279C/+ mice were sacrificed and total RNA from the hearts was isolated and qPCR was performed for the detection of mRNA expression for genes involved in the development of cardiomyopathy, Myh6 and Myh7 and the development of cardiac fibrosis, col1a2 and Col3a1.

Data set [1] concerns cardiomyocytes isolated from the heart of WT and Ptpn11^D61G/+ mice. As to the kind of experiment: Ca2+ excitation-contraction coupling of cardiomyocytes isolated from treated mice. It is filed as in vivo. The procedure: Vehicle-injected mice served as control.
Enzymatic Digestion of Cardiac Tissue for Single-Cell Analysis—Cardiomyocytes from 8 week old mice were isolated by a Langendorff procedure, modified from Xianghua Xu, et al. J Vis Exp. 2009; (28):1308. In brief, the hearts were quickly excised and cannulated to a Langendorff apparatus where they were perfused with 37° C. Ca^2+-free perfusion buffer (in 25 mM HEPES, 118 mM NaCl, 4.8 mM KCl, 2.0 mM KH2PO4, 2.55 mM MgSO4, 10 mM BDM and 10 mM Glucose). To digest the tissue, the heart was perfused with buffer containing 0.5 mg/mL Liberase TH (Roche Applied Science, Penzberg, Germany). After ˜10 min, the heart was removed from the Langendorff apparatus and the right ventricle and atria removed. The left ventricle was isolated, cut into small pieces and digested further at 37° C. digestion solution with mechanical agitation for 5-10 min, and then gently triturated to liberate individual cells. The remaining tissue chunks were transferred to fresh digestion buffer and the process was repeated up to 6 times, or until all tissue was digested. Cells were removed from collagenase by gentle centrifugation and resuspended in several washing steps of buffer containing FBS and gradually reintroduced to calcium (0.05-1.1 mM) through step-wise additions of concentrated CaCl2 solution. Cells were allowed to rest for at least 1 h before imaging.
Cardiomyocyte Functional Characterization—Cardiomyocytes were imaged in Tyrodes solution ([…] NaCl: 140, KCl: 5.4, CaCl2:1.8, MgCl2:1, HEPES: 25 mM, glucose: 10 mM). Cell pellets were loaded for 15 minutes in the dark with Tyrodes supplemented with 2.5 μM Fura-2 AM complimented with pluronic acid (20% w/v), for calcium fluorescence imaging. After 15 minutes of loading, the cells were resuspended in fresh Tyrodes solution and allowed to settle until imaging. Cardiomyocyte Ca^2+ transients and unloaded shortening contractions were measured using an inverted microscope (Nikon Eclipse, Chiyoda, Tokyo) equipped with a temperature controlled perfusion bath (Cell MicroControls, Norfolk, Va.) under constant perfusion of 37° C. Tyrodes solution. Cells were field-stimulated at 1 Hz. Contractile events were imaged in real-time using a sarcomere length camera system (HVSL, Aurora Scientific, Ontario, Canada). Only rod-shaped cells with well-defined sarcomere striations that contracted when stimulated were selected for measurement. Sarcomere length was measured and recorded for ten consecutive beats and subsequently averaged across beats to produce a single waveform. Calcium transient measurements were recorded simultaneously using alternating excitation wavelengths of 340 and 380 nm generated at an overall rate of 100 Hz by a RatioMaster fluorescence system (PTI, Birmingham, N.J.). Fluorescence emission was filtered at a center wavelength of 510 nm and quantified to obtain responses to the alternating excitation wavelengths (F340 and F380, respectively). Ca^2+ transients were reported as the interpolated ratio of the two fluorescence intensities (F340/F380) at each time point. Data were recorded using a DAP5216a data acquisition system (Microstar Laboratories, Bellevue, Wash.) and processed using custom software written in MATLAB (MathWorks, Natick, Mass.). Peak sarcomere length shortening (Peak SL shortening), time to peak shortening (TTP), time to 50% re-lengthening (RT50), the magnitude of the calcium transient (Ca^2+ Rmag:Max F340/F380−Min F340/F380) and the rate of calcium decay, Tau (TauCa2+) were computed.

Data set [2] concerns WT and Ptpn11^D61G/+ mice. As to the kind of experiment: Liver damage (H&E histology, serum ALT) after postnatal dasatinib. Conditions: postnatal 0.1 mg/kg/day; wild type or NS mice; monohydrate.
Excerpt: All data present mean±SEM. *, p<0.05; ***, p<0.001. (n=7˜10 for each group; Two-way ANOVA test).
Histology—Heart, liver and spleen were isolated from vehicle- or dasatinib-treated wild type and NS mice. Tissues were fixed in 4% paraformaldehyde in phosphate-buffer saline (PBS), processed for paraffin sections and stained with hematoxylin and eosin (H&E) or Masson's Trichrome. Tissue images were obtained under bright field microscopy (Olympus BX51, Yale Liver Center).
The mark [3] stands for this setting: postnatal 0.1 mg/kg/day from P10 for 6 weeks, Ptpn11Y279C/+ mice.
[4] abbreviates: postnatal dasatinib, Ptpn11D61G/+ mice, P56, n = 162 cells, n = 3 mice, Mean ± SEM.
The mark [5] stands for this setting: postnatal dasatinib, WT mice, P56, n = 111 cells, n = 3 mice, Mean ± SEM.

Turning to `Cc1nc(Nc2ncc(C(=O)Nc3c(C)cccc3Cl)s2)cc(N2CCN(CCO)CC2)n1.O` [Dasatinib, N-(2-chloro-6-methylphenyl)-2-[[6-[4-(2-hydroxyethyl)-1-piperazinyl]-2-methyl-4-pyrimidinyl]amino]-5-thiazole carboxamide monohydrate], in the data set on Ptpn11^Y279C/+ mice (0.1 mg/kg/day, NSML (Y279C/+) mice), the “molecular markers of cardiomyopathy and fibrosis” value is reported as “improvement”. In the data set with Ptpn11^Y279C/+ mice (setting [3]), the “expression of ANP, Myh6 and Myh7” value was “complete restoration back to wild type levels”; the “ratio of Myh6/Myh7” value was “restored to wild type levels”. In data set [1] (cardiomyocytes from dasatinib treated Ptpn11D61G/+ mice), the “Ca2+ signaling during excitation-contraction coupling” value was “normal”. Besides, in data set [1] (postnatal dasatinib, NS mice), the “difference in relative calcium release (Rmag Ca2+) between NS and wild type cardiomyocytes” value was “substantially ameliorated”; the “differences in fractional shortening of sarcomeres between NS and wild type cardiomyocytes” value is “completely restored”. Further, in data set [1] (setting [4]), the “Ca^2+ TTP (Time to peak, F340/380)” value came out at 43.22 ± 0.90 ms; the “Diastolic Ca^2+ (MinF340/380)” value worked out at 0.98 ± 0.01; the “Peak Shortening” value was found to be 6.59 ± 0.18 %; the “Rmag Ca^2+ (ΔF340/380)” value was 0.14 ± 0.01. In addition, in data set [1] (setting [4]), the “Shortening RT50 (Time from peak tension to 50% relaxation)” value came to 37.02 ± 0.62 ms, the “Shortening RT90 (Time from peak tension to 90% relaxation)” value was found to be 99.24 ± 3.23 ms, the “Shortening TTP (Time to peak)” value came out at 69.32 ± 0.79 ms and the “Systolic Ca^2+ (Max F340/380)” value was found to be 1.12 ± 0.01. In data set [1] (setting [4]), the “Tau Ca^2+” value is recorded as 116.52 ± 2.36 ms. Moreover, in data set [1] (setting [5]), the “Ca^2+ TTP (Time to peak, F340/380)” value was 42.75 ± 1.21 ms; the “Diastolic Ca^2+ (MinF340/380)” value is 0.94 ± 0.01; the “Peak Shortening” value is on record as 6.04 ± 0.23 %; the “Rmag Ca^2+ (ΔF340/380)” value was determined as 0.11 ± 0.01. Besides, in data set [1] (setting [5]), the “Shortening RT50 (Time from peak tension to 50% relaxation)” value was 41.11 ± 0.96 ms, the “Shortening TTP (Time to peak)” value is given as 71.52 ± 0.90 ms, the “Systolic Ca^2+ (Max F340/380)” value came to 1.06 ± 0.01 and the “Tau Ca^2+” value turned out to be 105.85 ± 2.35 ms. Further, in data set [2], the liver damage entry is recorded as “no evidence of liver damage; also recorded: does not induce liver damage”.
